The assay deals with human α-thrombin (Homo sapiens, UniProt P00734). The assay is described as follows: Sub-library screen for active and permeable cyclic peptides (PAMPA plus thrombin inhibition). It is filed as biochemical. To be noted: crude, slopes normalized to DMSO; for Residual thrombin activity: Top sample: PAMPA acceptor well after 14 h, 5 μM donor; for Residual thrombin activity: Equilibrated sample: donor sample diluted to theoretical equilibrium (1 μM in assay). A digest of the protocol:
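Acylated cyclic peptides at 5 μM in PBS pH 7.4 with 5% DMSO were run through PAMPA for 14 h at room temperature. Acceptor wells and a diluted donor sample at 3 μM, representing maximum permeability, were preincubated 10 min with human α-thrombin (6 nM stock). Z-Gly-Gly-Arg-AMC (150 μM stock) fluorescence was then read for 30 min at 25 °C, and inhibition was taken against a no-peptide control.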
For orientation: PAMPA measures passive passage across an artificial lipid membrane.

36 compounds from PMC11062899, “De novo development of small cyclic peptides that are orally bioavailable” (Nature Chemical Biology, 2023) can be followed below.

As for `O=C1C[C@H]2CCCN2C(=O)[C@@H](Cc2ccccc2)NC(=O)[C@@H](NC(=O)c2ccc(Cl)s2)CCCSCc2ccc(cc2)CSCCN1` [C3-X31-L3], the “Residual thrombin activity: Top sample” value was 99.4 and the “Residual thrombin activity: Equilibrated sample” value is 96.8.

Take `O=C1C[C@H]2CCCN2C(=O)[C@@H](Cc2ccccc2)NC(=O)[C@@H](NC(=O)c2ccc(Cl)s2)CCCSC/C=C/CSCCN1` [C3-X31-L4]: the “Residual thrombin activity: Top sample” value is 100.8 and the “Residual thrombin activity: Equilibrated sample” value was found to be 98.3.

`O=C1C[C@H]2CCCN2C(=O)[C@@H](Cc2ccccc2)NC(=O)[C@@H](NC(=O)c2ccc(Cl)s2)CCCSCc2cccc(c2)CSCCN1` [C3-X31-L5]: the “Residual thrombin activity: Top sample” value is recorded as 105.2 and the “Residual thrombin activity: Equilibrated sample” value was 103.4.

Regarding `O=C1C[C@H]2CCCN2C(=O)[C@@H](Cc2ccccc2)NC(=O)[C@@H](NC(=O)c2ccc(Cl)s2)CCCSCc2ccccc2CSCCN1` [C3-X31-L6], the “Residual thrombin activity: Top sample” value came to 97.6 and the “Residual thrombin activity: Equilibrated sample” value is 87.4.

Take `O=C1CSCCC[C@H](NC(=O)c2ccc(Cl)s2)C(=O)N[C@H](Cc2ccccc2)C(=O)N2CCC[C@@H]2CC(=O)NCCSC1` [C3-X31-L7]: the “Residual thrombin activity: Top sample” value is given as 102.1 and the “Residual thrombin activity: Equilibrated sample” value is listed as 99.4.

As to `CN1C(=O)[C@@H](NC(=O)c2ccc(Cl)s2)CCCSCc2cccc(n2)CSCCNC(=O)C[C@H]2CCCN2C(=O)[C@@H]1Cc1ccccc1` [C3-X32-L1], the “Residual thrombin activity: Top sample” value stood at 99.5 and the “Residual thrombin activity: Equilibrated sample” value worked out at 98.5.

Take `CN1C(=O)[C@@H](NC(=O)c2ccc(Cl)s2)CCCSCCS(=O)(=O)CCSCCNC(=O)C[C@H]2CCCN2C(=O)[C@@H]1Cc1ccccc1` [C3-X32-L2]: the “Residual thrombin activity: Top sample” value is 103.4 and the “Residual thrombin activity: Equilibrated sample” value turned out to be 103.4.

In the case of `CN1C(=O)[C@@H](NC(=O)c2ccc(Cl)s2)CCCSCc2ccc(cc2)CSCCNC(=O)C[C@H]2CCCN2C(=O)[C@@H]1Cc1ccccc1` [C3-X32-L3], the “Residual thrombin activity: Top sample” value was determined as 101.7 and the “Residual thrombin activity: Equilibrated sample” value was 98.3.

As to `CN1C(=O)[C@@H](NC(=O)c2ccc(Cl)s2)CCCSC/C=C/CSCCNC(=O)C[C@H]2CCCN2C(=O)[C@@H]1Cc1ccccc1` [C3-X32-L4], the “Residual thrombin activity: Top sample” value is recorded as 101.4 and the “Residual thrombin activity: Equilibrated sample” value was found to be 100.1.

As for `CN1C(=O)[C@@H](NC(=O)c2ccc(Cl)s2)CCCSCc2cccc(c2)CSCCNC(=O)C[C@H]2CCCN2C(=O)[C@@H]1Cc1ccccc1` [C3-X32-L5], the “Residual thrombin activity: Top sample” value is listed as 103.6 and the “Residual thrombin activity: Equilibrated sample” value is on record as 103.6.

As for `CN1C(=O)[C@@H](NC(=O)c2ccc(Cl)s2)CCCSCc2ccccc2CSCCNC(=O)C[C@H]2CCCN2C(=O)[C@@H]1Cc1ccccc1` [C3-X32-L6], the “Residual thrombin activity: Top sample” value came to 99.5 and the “Residual thrombin activity: Equilibrated sample” value amounted to 96.0.

For `CN1C(=O)[C@@H](NC(=O)c2ccc(Cl)s2)CCCSCC(=O)CSCCNC(=O)C[C@H]2CCCN2C(=O)[C@@H]1Cc1ccccc1` [C3-X32-L7], the “Residual thrombin activity: Top sample” value is 102.9 and the “Residual thrombin activity: Equilibrated sample” value was 98.1.

Consider `COc1ccc(C[C@@H]2NC(=O)[C@@H](NC(=O)c3ccc(Cl)s3)CCCSCc3cccc(n3)CSCCNC(=O)C[C@H]3CCCN3C2=O)cc1` [C3-X33-L1], for which the “Residual thrombin activity: Top sample” value turned out to be 99.7 and the “Residual thrombin activity: Equilibrated sample” value was found to be 94.6.

For `COc1ccc(C[C@@H]2NC(=O)[C@@H](NC(=O)c3ccc(Cl)s3)CCCSCCS(=O)(=O)CCSCCNC(=O)C[C@H]3CCCN3C2=O)cc1` [C3-X33-L2], the “Residual thrombin activity: Top sample” value came to 105.7 and the “Residual thrombin activity: Equilibrated sample” value is recorded as 97.1.

With `COc1ccc(C[C@@H]2NC(=O)[C@@H](NC(=O)c3ccc(Cl)s3)CCCSCc3ccc(cc3)CSCCNC(=O)C[C@H]3CCCN3C2=O)cc1` [C3-X33-L3], the “Residual thrombin activity: Top sample” value was 102.2 and the “Residual thrombin activity: Equilibrated sample” value worked out at 103.1.

For the compound `COc1ccc(C[C@@H]2NC(=O)[C@@H](NC(=O)c3ccc(Cl)s3)CCCSC/C=C/CSCCNC(=O)C[C@H]3CCCN3C2=O)cc1` [C3-X33-L4], the “Residual thrombin activity: Top sample” value amounted to 105.1 and the “Residual thrombin activity: Equilibrated sample” value worked out at 97.8.

Turning to `COc1ccc(C[C@@H]2NC(=O)[C@@H](NC(=O)c3ccc(Cl)s3)CCCSCc3cccc(c3)CSCCNC(=O)C[C@H]3CCCN3C2=O)cc1` [C3-X33-L5], the “Residual thrombin activity: Top sample” value is listed as 101.3 and the “Residual thrombin activity: Equilibrated sample” value is 103.0.

With `COc1ccc(C[C@@H]2NC(=O)[C@@H](NC(=O)c3ccc(Cl)s3)CCCSCc3ccccc3CSCCNC(=O)C[C@H]3CCCN3C2=O)cc1` [C3-X33-L6], the “Residual thrombin activity: Top sample” value is on record as 95.1 and the “Residual thrombin activity: Equilibrated sample” value is 92.6.

As for `COc1ccc(C[C@@H]2NC(=O)[C@@H](NC(=O)c3ccc(Cl)s3)CCCSCC(=O)CSCCNC(=O)C[C@H]3CCCN3C2=O)cc1` [C3-X33-L7], the “Residual thrombin activity: Top sample” value turned out to be 103.1 and the “Residual thrombin activity: Equilibrated sample” value was found to be 99.9.

As to `O=C1C[C@H]2CCCN2C(=O)[C@H](Cc2ccc(Cl)cc2)NC(=O)[C@@H](NC(=O)c2ccc(Cl)s2)CCCSCc2cccc(n2)CSCCN1` [C3-X34-L1], the “Residual thrombin activity: Top sample” value came out at 99.1 and the “Residual thrombin activity: Equilibrated sample” value amounted to 94.7.

On to `O=C1C[C@H]2CCCN2C(=O)[C@H](Cc2ccc(Cl)cc2)NC(=O)[C@@H](NC(=O)c2ccc(Cl)s2)CCCSCCS(=O)(=O)CCSCCN1` [C3-X34-L2], for which the “Residual thrombin activity: Top sample” value stood at 98.4 and the “Residual thrombin activity: Equilibrated sample” value is listed as 94.5.

With `O=C1C[C@H]2CCCN2C(=O)[C@H](Cc2ccc(Cl)cc2)NC(=O)[C@@H](NC(=O)c2ccc(Cl)s2)CCCSCc2ccc(cc2)CSCCN1` [C3-X34-L3], the “Residual thrombin activity: Top sample” value was 101.2 and the “Residual thrombin activity: Equilibrated sample” value is 96.4.

For `O=C1C[C@H]2CCCN2C(=O)[C@H](Cc2ccc(Cl)cc2)NC(=O)[C@@H](NC(=O)c2ccc(Cl)s2)CCCSC/C=C/CSCCN1` [C3-X34-L4], the “Residual thrombin activity: Top sample” value worked out at 100.7 and the “Residual thrombin activity: Equilibrated sample” value was determined as 91.1.

`O=C1C[C@H]2CCCN2C(=O)[C@H](Cc2ccc(Cl)cc2)NC(=O)[C@@H](NC(=O)c2ccc(Cl)s2)CCCSCc2cccc(c2)CSCCN1` [C3-X34-L5]: the “Residual thrombin activity: Top sample” value is reported as 103.1 and the “Residual thrombin activity: Equilibrated sample” value stood at 94.9.

On to `O=C1C[C@H]2CCCN2C(=O)[C@H](Cc2ccc(Cl)cc2)NC(=O)[C@@H](NC(=O)c2ccc(Cl)s2)CCCSCc2ccccc2CSCCN1` [C3-X34-L6], for which the “Residual thrombin activity: Top sample” value was 94.7 and the “Residual thrombin activity: Equilibrated sample” value is listed as 78.6.

As for `O=C1CSCCC[C@H](NC(=O)c2ccc(Cl)s2)C(=O)N[C@@H](Cc2ccc(Cl)cc2)C(=O)N2CCC[C@@H]2CC(=O)NCCSC1` [C3-X34-L7], the “Residual thrombin activity: Top sample” value is 103.7 and the “Residual thrombin activity: Equilibrated sample” value came to 93.3.

As to `N#Cc1ccc(C[C@@H]2NC(=O)[C@@H](NC(=O)c3ccc(Cl)s3)CCCSCc3cccc(n3)CSCCNC(=O)C[C@H]3CCCN3C2=O)cc1` [C3-X35-L1], the “Residual thrombin activity: Top sample” value stood at 93.2 and the “Residual thrombin activity: Equilibrated sample” value stood at 95.8.

Consider `N#Cc1ccc(C[C@@H]2NC(=O)[C@@H](NC(=O)c3ccc(Cl)s3)CCCSCCS(=O)(=O)CCSCCNC(=O)C[C@H]3CCCN3C2=O)cc1` [C3-X35-L2], for which the “Residual thrombin activity: Top sample” value came to 106.0 and the “Residual thrombin activity: Equilibrated sample” value is given as 96.7.

Consider `N#Cc1ccc(C[C@@H]2NC(=O)[C@@H](NC(=O)c3ccc(Cl)s3)CCCSCc3ccc(cc3)CSCCNC(=O)C[C@H]3CCCN3C2=O)cc1` [C3-X35-L3], for which the “Residual thrombin activity: Top sample” value is 103.5 and the “Residual thrombin activity: Equilibrated sample” value is 94.6.

In the case of `N#Cc1ccc(C[C@@H]2NC(=O)[C@@H](NC(=O)c3ccc(Cl)s3)CCCSC/C=C/CSCCNC(=O)C[C@H]3CCCN3C2=O)cc1` [C3-X35-L4], the “Residual thrombin activity: Top sample” value was 103.2 and the “Residual thrombin activity: Equilibrated sample” value is listed as 97.2.

In the case of `N#Cc1ccc(C[C@@H]2NC(=O)[C@@H](NC(=O)c3ccc(Cl)s3)CCCSCc3cccc(c3)CSCCNC(=O)C[C@H]3CCCN3C2=O)cc1` [C3-X35-L5], the “Residual thrombin activity: Top sample” value is given as 107.1 and the “Residual thrombin activity: Equilibrated sample” value was determined as 100.9.

`N#Cc1ccc(C[C@@H]2NC(=O)[C@@H](NC(=O)c3ccc(Cl)s3)CCCSCc3ccccc3CSCCNC(=O)C[C@H]3CCCN3C2=O)cc1` [C3-X35-L6]: the “Residual thrombin activity: Top sample” value is given as 96.5 and the “Residual thrombin activity: Equilibrated sample” value is reported as 93.5.

For `N#Cc1ccc(C[C@@H]2NC(=O)[C@@H](NC(=O)c3ccc(Cl)s3)CCCSCC(=O)CSCCNC(=O)C[C@H]3CCCN3C2=O)cc1` [C3-X35-L7], the “Residual thrombin activity: Top sample” value is recorded as 106.1 and the “Residual thrombin activity: Equilibrated sample” value stood at 102.1.

As to `O=C1C[C@H]2CCCN2C(=O)[C@H](Cc2ccc(C(F)(F)F)cc2)NC(=O)[C@@H](NC(=O)c2ccc(Cl)s2)CCCSCc2cccc(n2)CSCCN1` [C3-X36-L1], the “Residual thrombin activity: Top sample” value is given as 102.2 and the “Residual thrombin activity: Equilibrated sample” value stood at 98.3.

For `O=C1C[C@H]2CCCN2C(=O)[C@H](Cc2ccc(C(F)(F)F)cc2)NC(=O)[C@@H](NC(=O)c2ccc(Cl)s2)CCCSCCS(=O)(=O)CCSCCN1` [C3-X36-L2], the “Residual thrombin activity: Top sample” value came out at 105.4 and the “Residual thrombin activity: Equilibrated sample” value is given as 99.8.

In the case of `O=C1C[C@H]2CCCN2C(=O)[C@H](Cc2ccc(C(F)(F)F)cc2)NC(=O)[C@@H](NC(=O)c2ccc(Cl)s2)CCCSCc2ccc(cc2)CSCCN1` [C3-X36-L3], the “Residual thrombin activity: Top sample” value is listed as 101.9 and the “Residual thrombin activity: Equilibrated sample” value is 98.7.
